This note sets out measurements from PMC6211832, “Screening of candidate substrates and coupling ions of transporters by thermostability shift assays” (eLife, 2018).

One assay addresses T1, Mhp1 (Microbacterium maritypicum, UniProt D6R8X8).
T1 construct: gene hyuP; full length, C-terminal His6; plasmid pTTQ18, E. coli BL21(DE3), purified in dodecyl-maltoside
The assay can be described thus: CPM thermostability shift assay. In kind it is binding. Particulars: 2 mM compound, 140 mM NaCl, pH 8.0, dodecyl-maltoside.

For assay [1], the target named is T2, mitochondrial phosphate carrier of Tetrahymena thermophila (UniProt I7M3J0) (Tetrahymena thermophila, UniProt I7M3J0).
T2 construct: gene TTHERM_00535740; N-terminal His8 tag, TSED linker and Factor Xa site; expressed in S. cerevisiae W303-1B mitochondria, purified in lauryl maltose neopentyl glycol
T2 sequence (I7M3J0 entry or part of it): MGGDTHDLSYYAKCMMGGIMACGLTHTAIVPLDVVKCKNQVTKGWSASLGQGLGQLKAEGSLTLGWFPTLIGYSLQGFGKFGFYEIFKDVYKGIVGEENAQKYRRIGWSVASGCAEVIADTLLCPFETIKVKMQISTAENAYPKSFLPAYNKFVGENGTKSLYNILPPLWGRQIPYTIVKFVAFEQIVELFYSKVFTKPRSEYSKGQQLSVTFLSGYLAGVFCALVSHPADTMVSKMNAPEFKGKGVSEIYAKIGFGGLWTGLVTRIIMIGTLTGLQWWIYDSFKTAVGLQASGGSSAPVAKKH
Nature of the assay: CPM thermostability shift assay. In kind it is binding. To be noted: 2.5 mM compound, pH 6.0, 100 mM NaCl, tetraoleoyl cardiolipin.

Assay [2] has as its target T3, mitochondrial ADP/ATP carrier (AAC) (Thermothelomyces thermophilus, UniProt G2QNH0).
T3 construct: gene MYCTH_2316753; N-terminal His8 tag, TSED linker and Factor Xa site; expressed in S. cerevisiae WB.12 mitochondria, purified in dodecyl-maltoside
Nature of the assay: CPM thermostability shift assay. In kind it is binding. To be noted: 2.5 mM compound, pH 8.0, 100 mM NaCl, dodecyl-maltoside, tetraoleoyl cardiolipin. The text has this:
CPM thermostability shift assay on mitochondrial ADP/ATP carrier (AAC) | In the presence of ATP, ADP, and dADP the population was stabilized

The target in assay [3] is T4, GalP (Escherichia coli, UniProt P0AEP1).
T4 construct: full length, C-terminal His6; plasmid pGP1 in E. coli JM1100, purified in dodecyl-maltoside
T4 sequence (P0AEP1 whole entry): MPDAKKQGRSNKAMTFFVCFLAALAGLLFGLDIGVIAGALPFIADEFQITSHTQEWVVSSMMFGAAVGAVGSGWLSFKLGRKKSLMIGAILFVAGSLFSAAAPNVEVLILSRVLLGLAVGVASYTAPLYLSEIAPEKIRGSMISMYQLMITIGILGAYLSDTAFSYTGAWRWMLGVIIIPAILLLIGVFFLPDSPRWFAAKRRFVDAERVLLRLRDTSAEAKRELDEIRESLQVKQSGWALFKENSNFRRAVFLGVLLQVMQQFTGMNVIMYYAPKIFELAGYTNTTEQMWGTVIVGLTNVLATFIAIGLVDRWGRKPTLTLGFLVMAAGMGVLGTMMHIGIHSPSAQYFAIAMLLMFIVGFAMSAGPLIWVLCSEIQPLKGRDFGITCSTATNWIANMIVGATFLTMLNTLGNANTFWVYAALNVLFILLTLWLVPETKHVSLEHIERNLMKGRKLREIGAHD
Nature of the assay: CPM thermostability shift assay. In kind it is binding. To be noted: 50 mM compound, dodecyl-maltoside.

Assay [4] concerns the target T2, mitochondrial phosphate carrier of Tetrahymena thermophila. The assay can be described thus: competition of […]-orthophosphate uptake in proteoliposomes. It is filed as biochemical. To be noted: 20 mM external glyoxylate, 20 μM [33P]-orthophosphate, pH 6.5, 20 mM internal compound.
Assay [5] deals with T4, GalP. Nature of the assay: CPM thermostability shift assay. It is filed as binding. Particulars: 50 mM compound, dodecyl-maltoside. This is another data set of the same source.

T1 sequence (D6R8X8 whole entry): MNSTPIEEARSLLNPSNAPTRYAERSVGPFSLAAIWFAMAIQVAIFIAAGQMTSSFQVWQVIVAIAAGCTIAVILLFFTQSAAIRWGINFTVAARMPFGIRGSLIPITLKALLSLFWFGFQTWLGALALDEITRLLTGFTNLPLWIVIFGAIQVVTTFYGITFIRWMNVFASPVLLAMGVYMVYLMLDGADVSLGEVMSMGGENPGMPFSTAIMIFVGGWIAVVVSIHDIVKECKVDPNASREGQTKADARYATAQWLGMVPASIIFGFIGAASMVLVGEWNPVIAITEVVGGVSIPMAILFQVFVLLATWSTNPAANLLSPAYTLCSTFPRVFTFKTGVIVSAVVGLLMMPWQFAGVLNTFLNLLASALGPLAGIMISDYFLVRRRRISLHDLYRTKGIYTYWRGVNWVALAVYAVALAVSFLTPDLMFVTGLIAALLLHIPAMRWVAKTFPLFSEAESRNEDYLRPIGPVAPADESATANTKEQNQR
T3 sequence (G2QNH0 whole entry): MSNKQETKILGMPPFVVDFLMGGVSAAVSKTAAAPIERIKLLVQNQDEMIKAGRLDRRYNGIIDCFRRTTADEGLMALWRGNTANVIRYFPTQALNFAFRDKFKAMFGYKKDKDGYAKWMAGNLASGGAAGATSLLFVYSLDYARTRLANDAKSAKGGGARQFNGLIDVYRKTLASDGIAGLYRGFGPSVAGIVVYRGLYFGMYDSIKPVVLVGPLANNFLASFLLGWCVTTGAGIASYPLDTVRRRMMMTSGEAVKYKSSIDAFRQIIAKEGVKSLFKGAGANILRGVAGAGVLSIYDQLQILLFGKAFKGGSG

In the case of `O=C1NC(=O)C(C=CBr)N1` (stereo not drawn) [BVH, 5-bromovinylhydantoin], the dTm on Mhp1 worked out at 11.9 ± 1.1 °C.
Take `CC(=O)OP(=O)(O)O` [acetyl-phosphate]: in assay [1], the dTm stood at 3.2 ± 0.5 °C.
In the case of `Nc1ncnc2c1ncn2[C@H]1C[C@H](O)[C@@H](COP(=O)(O)OP(=O)(O)O)O1` [dADP], the dTm in assay [2] was 1.8 ± 0.2 °C.
On to `OC[C@H]1OC(O)[C@H](O)[C@@H](O)[C@@H]1O` (stereo partly drawn) [D-glucose], for which the dTm at GalP [3] turned out to be 4.2 ± 0.5 °C.
In the case of `O=CC(=O)O` [glyoxylate], the “inhibition of phosphate uptake” value in assay [4] is “in competition assays glyoxylate abolished uptake”. In addition, the dTm in assay [1] came out at 3.6 ± 0.8 °C.
For the molecule `OC[C@H]1OC(O)C[C@@H](O)[C@@H]1O` (stereo partly drawn) [2-deoxy-D-glucose], the dTm entry at GalP [5] was “to a lesser extent by D-talose, 2-deoxy-D-glucose, 6-deoxy-D-glucose”.
Regarding `Nc1ncnc2c1ncn2[C@@H]1O[C@H](COP(=O)(O)OP(=O)(O)O)[C@@H](O)[C@H]1O` [ADP], the dTm in assay [2] was determined as 6.0 ± 0.5 °C.
`C=C(OP(=O)(O)O)C(=O)O` [phosphoenolpyruvate]: the dTm in assay [1] stood at 2.3 ± 0.2 °C.
Take `OC[C@H]1OC(O)[C@@H](O)[C@@H](O)[C@H]1O` (stereo partly drawn) [D-talose]: at GalP [5], the dTm entry is recorded as “to a lesser extent by D-talose, 2-deoxy-D-glucose, 6-deoxy-D-glucose”.
Take `Nc1ncnc2c1ncn2[C@@H]1O[C@H](COP(=O)(O)OP(=O)(O)OP(=O)(O)O)[C@@H](O)[C@H]1O` [ATP]: in assay [2], the dTm is 7.2 ± 0.2 °C.
Take `C[C@H]1OC(O)[C@H](O)[C@@H](O)[C@@H]1O` (stereo partly drawn) [6-deoxy-D-glucose]: the dTm entry on GalP [5] was “to a lesser extent by D-talose, 2-deoxy-D-glucose, 6-deoxy-D-glucose”.
Turning to `O=C1NC(=O)[C@H](Cc2ccccc2)N1` [L-BH, 5-benzyl-L-hydantoin], the dTm on Mhp1 came to 13.6 ± 1.2 °C.
As for `O=C1NC(=O)[C@H](Cc2ccc3ccccc3c2)N1` [L-NMH, 5-(2-naphthylmethyl)-L-hydantoin], the dTm on Mhp1 (inhibitor) came out at 15.6 ± 1.7 °C.
For `OC[C@H]1OC(O)[C@H](O)[C@@H](O)[C@H]1O` (stereo partly drawn) [D-galactose], at GalP [3], the dTm was found to be 2.1 ± 0.6 °C.
